According to ChEMBL document CHEMBL1201862, “PubChem BioAssay data set” (2004):
Activity calls are given as the source filed them.

Key:
[1] = target: E3 ubiquitin-protein ligase XIAP (Homo sapiens, UniProt P98170); test: Counter Screen using XIAP-Bir3 for Chemical Antagonists of Bir1/2 domains of IAP-family anti-apoptotic proteins. [Related pubchem assays (depositor defined):AID1018, AID1449, AID1514, AID1638, AID1749, AID1750, AID488957, AID488963]
[2] = compound autofluorescence in calcium buffer – biochemical, fluorescence, no RTF in test wells, artefact control for cardiac thin filament activator project, dose response (AID 504697)
[3] = target: Troponin, cardiac muscle (Homo sapiens, UniProt P19429+P45379+P63316); test: Fluorescence-based biochemical high throughput dose response assay for activators of the calcium sensitivity of cardiac Regulated Thin Filaments (RTF). [Related pubchem assays (depositor defined):AID493008, AID493018, AID504382, AID504383]; format: protein-complex assay
[4] = target: T1, Long-chain-fatty-acid--AMP ligase FadD28 (Mycobacterium tuberculosis, UniProt P9WQ59); test: Fluorescence polarization aasay to screen for inhibitors that compete for the binding of FadD28 to a bisubstrate Measured in Biochemical System Using Plate Reader - 2147-01_Inhibitor_Dose_CherryPick_Activity.; format: functional, Mycobacterium tuberculosis H37Rv
T1 sequence (P9WQ59 whole entry): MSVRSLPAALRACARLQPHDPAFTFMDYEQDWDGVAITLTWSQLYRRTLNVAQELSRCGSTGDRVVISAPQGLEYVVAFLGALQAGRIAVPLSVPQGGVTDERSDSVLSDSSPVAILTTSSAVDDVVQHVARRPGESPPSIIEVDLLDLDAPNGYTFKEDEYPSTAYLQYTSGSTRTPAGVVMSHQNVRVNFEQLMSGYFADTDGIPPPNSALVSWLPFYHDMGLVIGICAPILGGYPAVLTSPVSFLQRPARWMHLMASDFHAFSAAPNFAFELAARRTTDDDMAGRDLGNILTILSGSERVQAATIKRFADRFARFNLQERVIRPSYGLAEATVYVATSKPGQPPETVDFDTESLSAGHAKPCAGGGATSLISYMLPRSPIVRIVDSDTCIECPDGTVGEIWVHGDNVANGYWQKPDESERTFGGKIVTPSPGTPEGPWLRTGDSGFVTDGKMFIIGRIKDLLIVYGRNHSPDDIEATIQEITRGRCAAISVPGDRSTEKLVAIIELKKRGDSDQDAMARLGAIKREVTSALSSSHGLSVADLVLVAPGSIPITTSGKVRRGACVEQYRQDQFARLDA

[5] = target: Transitional endoplasmic reticulum ATPase (Homo sapiens, UniProt P55072, C522A); test: C522A mutant p97 ATPase inhibitors, dose response, counter-screen for p97 inhibitor project, biochemical, luminescence (AID 1544)
Chain of Transitional endoplasmic reticulum ATPase (Homo sapiens, UniProt P55072, C522A) (P55072 2-806 C522A limits assumed): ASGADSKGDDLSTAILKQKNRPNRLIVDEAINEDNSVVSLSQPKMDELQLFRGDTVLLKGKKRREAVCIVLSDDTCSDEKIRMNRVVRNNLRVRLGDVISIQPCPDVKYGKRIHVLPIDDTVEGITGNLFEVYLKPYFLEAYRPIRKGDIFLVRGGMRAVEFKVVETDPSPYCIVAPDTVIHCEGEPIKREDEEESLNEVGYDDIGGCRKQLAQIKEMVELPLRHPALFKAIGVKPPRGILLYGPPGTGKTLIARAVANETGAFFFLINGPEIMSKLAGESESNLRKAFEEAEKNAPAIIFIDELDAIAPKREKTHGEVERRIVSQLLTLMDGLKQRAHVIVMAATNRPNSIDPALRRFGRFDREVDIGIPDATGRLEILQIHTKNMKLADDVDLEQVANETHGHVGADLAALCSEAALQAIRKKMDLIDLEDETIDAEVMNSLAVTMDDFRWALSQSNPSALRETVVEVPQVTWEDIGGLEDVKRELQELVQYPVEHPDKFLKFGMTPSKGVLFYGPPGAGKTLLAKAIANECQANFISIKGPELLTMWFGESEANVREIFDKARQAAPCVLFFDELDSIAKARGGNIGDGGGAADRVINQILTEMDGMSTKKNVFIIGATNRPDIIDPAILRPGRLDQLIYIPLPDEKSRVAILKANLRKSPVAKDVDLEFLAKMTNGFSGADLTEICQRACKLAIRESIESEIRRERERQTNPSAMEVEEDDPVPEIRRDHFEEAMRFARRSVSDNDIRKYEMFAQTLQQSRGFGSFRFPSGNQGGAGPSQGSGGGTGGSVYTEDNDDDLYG

[6] = target: Transitional endoplasmic reticulum ATPase (Homo sapiens, UniProt P55072); test: p97 ATPase inhibitors, dose response, biochemical (AID 1534)
Chain of Transitional endoplasmic reticulum ATPase (Homo sapiens, UniProt P55072) (P55072 whole entry): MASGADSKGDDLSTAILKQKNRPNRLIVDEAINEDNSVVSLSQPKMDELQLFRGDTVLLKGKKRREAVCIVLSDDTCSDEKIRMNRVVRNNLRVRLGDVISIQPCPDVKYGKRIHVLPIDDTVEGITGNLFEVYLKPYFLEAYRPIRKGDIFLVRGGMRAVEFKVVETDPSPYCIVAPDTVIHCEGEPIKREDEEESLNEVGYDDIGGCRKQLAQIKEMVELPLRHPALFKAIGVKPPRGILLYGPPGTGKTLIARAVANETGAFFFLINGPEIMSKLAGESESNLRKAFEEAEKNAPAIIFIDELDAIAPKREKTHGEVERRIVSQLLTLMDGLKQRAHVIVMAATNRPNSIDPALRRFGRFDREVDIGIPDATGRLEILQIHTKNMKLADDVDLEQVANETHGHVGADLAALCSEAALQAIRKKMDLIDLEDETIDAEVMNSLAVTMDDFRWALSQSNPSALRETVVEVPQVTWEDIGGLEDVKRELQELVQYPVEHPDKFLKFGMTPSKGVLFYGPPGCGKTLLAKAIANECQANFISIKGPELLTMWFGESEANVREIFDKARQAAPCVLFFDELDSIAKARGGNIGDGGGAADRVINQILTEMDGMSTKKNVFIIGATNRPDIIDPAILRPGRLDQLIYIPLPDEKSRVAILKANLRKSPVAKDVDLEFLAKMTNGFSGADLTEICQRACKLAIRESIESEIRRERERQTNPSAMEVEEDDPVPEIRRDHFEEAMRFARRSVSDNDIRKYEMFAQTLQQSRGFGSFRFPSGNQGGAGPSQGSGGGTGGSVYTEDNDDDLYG

[7] = Luminescence Cell-Based Dose Retest to Confirm Inhibitors of Cancer Stem Cells. [Related pubchem assays (depositor defined):AID2717, AID2721]; format: functional; settings: Homo sapiens
[8] = target: DNA damage-inducible transcript 3 protein (Mus musculus, UniProt P35639); format: functional, Cricetulus griseus
Chain of DNA damage-inducible transcript 3 protein (P35639 whole entry): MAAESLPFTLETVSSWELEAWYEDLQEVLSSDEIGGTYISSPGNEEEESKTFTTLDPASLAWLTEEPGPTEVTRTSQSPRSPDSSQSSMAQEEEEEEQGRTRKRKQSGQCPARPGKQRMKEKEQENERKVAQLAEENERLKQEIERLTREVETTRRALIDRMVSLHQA

[9] = target: X-box-binding protein 1 (Homo sapiens, UniProt P17861); format: functional, Cricetulus griseus;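 also: confirmatory dose-response counter-screen serving a CHOP assay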
Chain of X-box-binding protein 1 (P17861 whole entry): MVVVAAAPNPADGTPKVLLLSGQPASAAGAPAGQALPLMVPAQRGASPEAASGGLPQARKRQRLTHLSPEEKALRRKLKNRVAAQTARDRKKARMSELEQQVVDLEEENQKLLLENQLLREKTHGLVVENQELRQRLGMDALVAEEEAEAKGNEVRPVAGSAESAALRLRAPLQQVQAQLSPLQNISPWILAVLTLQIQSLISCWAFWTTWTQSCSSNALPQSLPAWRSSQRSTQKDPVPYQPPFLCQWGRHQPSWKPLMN

[10] = target: Tyrosine-protein phosphatase non-receptor type 12 (Homo sapiens, UniProt Q05209); test: SAR Selectivity Analysis of small molecule inhibitors of PEST using pCAP in a fluorescence assay. [Related pubchem assays (depositor defined):AID1779, AID1784, AID2135]; format: functional
Chain of Tyrosine-protein phosphatase non-receptor type 12 (Q05209 whole entry): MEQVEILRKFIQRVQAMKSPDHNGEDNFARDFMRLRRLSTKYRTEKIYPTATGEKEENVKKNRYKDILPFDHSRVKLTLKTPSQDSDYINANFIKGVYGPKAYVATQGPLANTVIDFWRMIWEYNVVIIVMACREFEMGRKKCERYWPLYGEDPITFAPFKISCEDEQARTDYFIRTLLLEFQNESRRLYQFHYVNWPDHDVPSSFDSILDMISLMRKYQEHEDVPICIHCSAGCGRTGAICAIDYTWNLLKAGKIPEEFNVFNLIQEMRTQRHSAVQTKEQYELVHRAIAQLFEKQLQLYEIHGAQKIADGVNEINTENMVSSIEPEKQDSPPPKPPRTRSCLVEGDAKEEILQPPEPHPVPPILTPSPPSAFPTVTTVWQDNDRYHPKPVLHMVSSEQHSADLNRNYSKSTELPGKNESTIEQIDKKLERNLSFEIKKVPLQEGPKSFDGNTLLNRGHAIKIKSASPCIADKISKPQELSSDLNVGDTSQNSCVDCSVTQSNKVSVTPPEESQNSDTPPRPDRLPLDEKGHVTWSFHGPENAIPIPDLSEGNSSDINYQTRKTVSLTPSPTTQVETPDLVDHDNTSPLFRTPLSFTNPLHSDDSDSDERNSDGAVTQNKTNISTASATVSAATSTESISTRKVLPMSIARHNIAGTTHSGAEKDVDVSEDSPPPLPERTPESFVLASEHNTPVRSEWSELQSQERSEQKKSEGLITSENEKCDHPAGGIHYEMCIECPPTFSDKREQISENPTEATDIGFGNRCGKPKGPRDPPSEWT

[11] = target: T2, Tyrosine-protein phosphatase non-receptor type 22 (Homo sapiens, UniProt Q9Y2R2); test: SAR LYP1 Fluorescent Assay using OMFP substrate for In Vitro dose response studies - Set 3. [Related pubchem assays (depositor defined):AID1779, AID1784, AID2140, AID2686]; format: functional
T2 sequence (Q9Y2R2 whole entry): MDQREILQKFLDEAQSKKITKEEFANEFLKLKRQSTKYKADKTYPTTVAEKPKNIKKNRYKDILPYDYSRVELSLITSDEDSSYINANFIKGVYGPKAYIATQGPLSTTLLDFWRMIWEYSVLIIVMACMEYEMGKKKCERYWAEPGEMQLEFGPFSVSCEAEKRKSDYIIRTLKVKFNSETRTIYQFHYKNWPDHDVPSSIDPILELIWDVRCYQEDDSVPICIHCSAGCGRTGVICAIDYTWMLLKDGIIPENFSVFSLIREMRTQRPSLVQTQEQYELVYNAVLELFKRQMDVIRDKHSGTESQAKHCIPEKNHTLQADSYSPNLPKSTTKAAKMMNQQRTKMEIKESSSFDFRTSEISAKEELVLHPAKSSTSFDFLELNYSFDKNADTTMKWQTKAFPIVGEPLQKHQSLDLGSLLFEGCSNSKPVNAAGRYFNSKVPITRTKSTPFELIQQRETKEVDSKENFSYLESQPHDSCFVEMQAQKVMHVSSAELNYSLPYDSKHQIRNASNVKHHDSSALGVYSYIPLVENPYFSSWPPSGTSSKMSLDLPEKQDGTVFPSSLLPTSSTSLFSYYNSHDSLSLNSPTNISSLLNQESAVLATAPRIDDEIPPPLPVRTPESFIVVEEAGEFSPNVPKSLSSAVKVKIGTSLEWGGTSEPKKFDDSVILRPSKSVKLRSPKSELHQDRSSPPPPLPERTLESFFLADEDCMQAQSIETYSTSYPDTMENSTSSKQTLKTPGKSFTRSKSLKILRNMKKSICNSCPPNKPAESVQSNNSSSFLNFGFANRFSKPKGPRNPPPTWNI

[12] = target: T3, Tyrosine-protein phosphatase non-receptor type 7 (Homo sapiens, UniProt P35236); test: redox-active compounds inhibiting HePTP phosphatase – biochemical, fluorescence, mechanism study (AID 2068); format: functional
T3 sequence (P35236 whole entry): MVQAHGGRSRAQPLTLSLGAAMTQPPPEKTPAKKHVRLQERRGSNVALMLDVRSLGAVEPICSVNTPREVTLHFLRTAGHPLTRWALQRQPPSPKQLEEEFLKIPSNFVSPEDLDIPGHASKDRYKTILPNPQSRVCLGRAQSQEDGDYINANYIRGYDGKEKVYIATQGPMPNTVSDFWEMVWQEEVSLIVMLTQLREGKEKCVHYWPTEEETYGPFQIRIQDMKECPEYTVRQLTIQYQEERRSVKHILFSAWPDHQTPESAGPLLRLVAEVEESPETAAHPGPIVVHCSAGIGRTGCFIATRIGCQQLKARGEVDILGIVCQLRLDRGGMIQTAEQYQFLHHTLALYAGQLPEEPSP

[13] = target: T3, Tyrosine-protein phosphatase non-receptor type 7; test: inhibition of hematopoietic tyrosine phosphatase HePTP – biochemical, set 2, SAR follow-up (AID 449736); format: functional
[14] = target: T2, Tyrosine-protein phosphatase non-receptor type 22; test: inhibition of lymphoid tyrosine phosphatase LYP – biochemical, pCAP fluorogenic substrate, fluorescence, set 3, SAR follow-up (AID 449727); format: functional
[15] = target: Dual specificity protein phosphatase 3 (Homo sapiens, UniProt P51452); test: SAR VHR1 Fluorescent Assay for In Vitro dose response studies Set 2. [Related pubchem assays (depositor defined):AID1654, AID1661, AID1878]; format: functional
Chain of Dual specificity protein phosphatase 3 (P51452 whole entry): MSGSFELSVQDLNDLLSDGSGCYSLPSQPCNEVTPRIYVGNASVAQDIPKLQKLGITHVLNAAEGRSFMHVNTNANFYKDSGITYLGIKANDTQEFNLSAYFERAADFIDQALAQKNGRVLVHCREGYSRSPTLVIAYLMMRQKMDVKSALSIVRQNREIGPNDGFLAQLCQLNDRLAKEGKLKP

[16] = target: T4, Dual specificity protein phosphatase 6 (Rattus norvegicus, UniProt Q64346); format: functional;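 also: confirmatory in vitro dose-response testing of MKP-3 inhibition; recombinant His-tagged MKP-3 made in E. coli BL21 with OMFP substrate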
T4 sequence (Q64346 whole entry): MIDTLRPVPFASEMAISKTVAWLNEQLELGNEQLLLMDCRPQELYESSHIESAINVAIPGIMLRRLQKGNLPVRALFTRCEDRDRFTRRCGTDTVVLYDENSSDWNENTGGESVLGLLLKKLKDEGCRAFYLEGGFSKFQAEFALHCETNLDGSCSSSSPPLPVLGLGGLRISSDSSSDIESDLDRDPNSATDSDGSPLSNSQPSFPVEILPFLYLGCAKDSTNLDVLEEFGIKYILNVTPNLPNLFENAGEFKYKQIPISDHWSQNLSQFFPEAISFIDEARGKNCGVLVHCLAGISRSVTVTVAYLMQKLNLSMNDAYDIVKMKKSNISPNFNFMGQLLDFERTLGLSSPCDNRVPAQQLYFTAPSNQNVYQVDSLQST

Chain of E3 ubiquitin-protein ligase XIAP (P98170 whole entry): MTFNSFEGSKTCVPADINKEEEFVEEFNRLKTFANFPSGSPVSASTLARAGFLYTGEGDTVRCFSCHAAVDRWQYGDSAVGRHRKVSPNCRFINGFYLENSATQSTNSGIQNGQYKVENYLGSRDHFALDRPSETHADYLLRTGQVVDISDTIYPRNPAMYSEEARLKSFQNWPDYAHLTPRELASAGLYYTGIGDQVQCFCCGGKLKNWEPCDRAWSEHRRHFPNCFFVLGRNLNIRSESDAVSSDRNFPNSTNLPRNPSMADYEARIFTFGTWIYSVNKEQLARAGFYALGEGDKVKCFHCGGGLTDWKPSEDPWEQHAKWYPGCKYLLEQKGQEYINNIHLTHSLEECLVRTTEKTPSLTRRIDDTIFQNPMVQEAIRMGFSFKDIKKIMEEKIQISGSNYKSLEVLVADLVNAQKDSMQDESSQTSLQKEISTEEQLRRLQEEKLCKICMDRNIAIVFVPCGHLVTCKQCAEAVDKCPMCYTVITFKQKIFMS

Structure (SMILES): CCN1C(=O)C(=CNc2ccc(N3CCOCC3)cc2)C(=O)N(CC)C1=S
- IC50 [1]: > 20 µM (inactive)
- EC50 [2]: > 7.94 µM (active)
- EC50 [3]: 5.15 µM (active)
- AC50 [4]: > 100 µM (inactive)

Structure (SMILES): Cc1cc(Nc2ccccc2)nc(-c2ccccc2O)n1
- IC50 [5]: > 50 µM (not active)
- IC50 [6]: > 50 µM (not active)
- AC50 [7]: 5.64 µM (active)
- Absolute IC50 (CHOP) [8]: 10 µM
- Absolute IC50 (XBP1) [9]: < 10 µM

Structure (SMILES): CCOc1cc(/C=C2\SC(=O)N(CC(=O)Nc3ccc(C)cc3)C2=O)cc(Cl)c1OCC(=O)OC
- IC50 [10]: > 100 µM (inactive)
- IC50 [11]: > 100 µM (inactive)
- IC50 [12]: 17.9 µM (active)
- IC50 [13]: 9.66 µM (active)
- IC50 [14]: > 100 µM (inactive)
- IC50 [15]: > 100 µM (inactive)
- IC50 [16]: > 100 µM (inactive)
